25 molecules from patent publication US9096595B2, “7-(heteroaryl-amino)-6,7,8,9-tetrahydropyrido[1,2-a]indol acetic acid derivatives and their use as prostaglandin D2 receptor modulators” (Actelion Pharmaceuticals Ltd, priority 2011, dated 2015) can be followed below.

The target in assay [1] is T1, hCRTH2 receptor (Homo sapiens (Human), UniProt Q9Y5Y4). The assay can be described thus: Radioligand displacement assay in presence of human serum albumin (HSA). To be noted: 3H-PGD2 2.5 nM, HEK293-hCRTH2 membrane fragments, Binding-Buffer-HSA with 0.5% human serum albumin instead of 0.1% BSA. As to the method: (§1) First, recombinant HEK293-hCRTH2 cells were detached from culture plates into 5 ml buffer A/plate (Buffer A: 5 mM Tris, 1 mM MgCl2-6H2O pH=7.4) using a rubber policeman. Cells were then transferred into centrifugation tubes and centrifuged for 5 min at 400 g. The cell pellet was resuspended in the same buffer and tubes were frozen at −80° C. Cells were thawed and membrane fragments were generated by homogenization using a polytron homogenizer (30 seconds). The membrane fragments were then centrifuged at 3000 g for 20 minutes and resuspended in buffer C (Buffer C: 75 mM Tris, 25 mM MgCl2, 250 mM Saccharose pH 7.4). Aliquots of membrane fragments were stored at −20° C.
T1 sequence (Q9Y5Y4 whole entry, the tested form may be a part): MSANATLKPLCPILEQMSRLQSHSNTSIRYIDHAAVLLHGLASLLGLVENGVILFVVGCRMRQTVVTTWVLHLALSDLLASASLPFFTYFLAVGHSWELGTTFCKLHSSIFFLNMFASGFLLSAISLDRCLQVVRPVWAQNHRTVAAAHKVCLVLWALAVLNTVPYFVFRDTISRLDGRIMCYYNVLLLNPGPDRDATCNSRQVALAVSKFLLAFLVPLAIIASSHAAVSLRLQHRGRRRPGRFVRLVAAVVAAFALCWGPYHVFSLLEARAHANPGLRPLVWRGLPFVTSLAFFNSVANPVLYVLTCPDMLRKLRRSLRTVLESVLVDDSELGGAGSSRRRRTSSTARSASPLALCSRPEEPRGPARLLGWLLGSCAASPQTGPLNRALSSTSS
(§2) Binding assay was performed in a final assay volume of 250 μl. First, 25 μl of test compound, previously diluted in Binding-Buffer (Binding-Buffer: 50 mM Tris-Base, 100 mM NaCl, 1 mM EDTA, 0.1% BSA (protease free), 0.01% NaN3, 10 mM MnCl2 pH 7.0) was placed into each well. After addition of 75 μl Binding-Buffer, 50 μl of the radioligand ^3H-PGD2 (at 2.5 nM (220.000 dpm/well) from ANAWA ART0662) was added to each well. Binding assay was started by addition of 100 μl CRTH2 membrane fragments, reaching a final concentration of 20 μg/well. For non-specific binding, PGD2 was added to the reaction mixture to […] final concentration. This assay mix was incubated for 90 minutes at room temperature and then filtered through a GF/C filter 96-well plate which was pre-soaked for 3 hours in 0.5% polyethyleneimine (PEI). The filter-wells were washed three times with ice cold Binding-Buffer. Then, 40 μl of Microscint-40 (Packard) was added to each well and the retained radioactivity quantified in a Topcount (Packard).
Radioligand displacement assay in presence of human serum albumin (HSA) was performed as described above, with following modifications. Binding-Buffer-HSA: Binding-buffer+0.5% Sigma Albumin from Human serum A1887 (instead of 0.1% BSA). A volume of 25 μl test compound, previously diluted in Binding-Buffer-HSA was placed into each well. After addition of 75 μl Binding-Buffer-HSA, 50 μl of ^3H-PGD2 (at 2.5 nM (220.000 dpm/well) from ANAWA ART0662) was added to each well. Remaining protocol was identical as described above.
For orientation: In a radioligand displacement assay an active substance lowers the binding of a labelled ligand.

The target in assay [2] is T1, hCRTH2 receptor. The assay can be described thus: hCRTH2 receptor membranes radioligand (3H-PGD2) displacement assay. The conditions noted are these: 3H-PGD2 2.5 nM, HEK293-hCRTH2 membrane fragments, Binding-Buffer with 0.1% BSA. As to the method: as §1, §2

A value given as a limit tells only on which side of the number the result lay.

As usually defined, the IC50 is the concentration that gives 50% inhibition. On to `CN(c1ncc(Cl)cn1)C1CCc2c(CC(=O)O)c3ccccc3n2C1` (stereo not shown) [Example 1, 2-(7-((5-chloropyrimidin-2-yl)(methyl)amino)-6,7,8,9-tetrahydropyrido[1,2-a]indol-10-yl)acetic acid], for which the IC50 on hCRTH2 receptor [1] was 66 nM; on hCRTH2 receptor [2], 21 nM.

As to `CN(c1ncc(F)cn1)C1CCc2c(CC(=O)O)c3ccccc3n2C1` (stereo not shown) [Example 2, 2-(7-((5-fluoropyrimidin-2-yl)(methyl)amino)-6,7,8,9-tetrahydropyrido[1,2-a]indol-10-yl)acetic acid], the IC50 at hCRTH2 receptor [1] came out at 29 nM; at hCRTH2 receptor [2] it was 9 nM.

`CN(c1ncc(C(F)(F)F)cn1)C1CCc2c(CC(=O)O)c3ccccc3n2C1` (stereo not shown) [Example 3, 2-(7-(methyl(5-(trifluoromethyl)pyrimidin-2-yl)amino)-6,7,8,9-tetrahydropyrido[1,2-a]indol-10-yl)acetic acid]: the IC50 came to 152 nM on hCRTH2 receptor [1] and 8 nM on hCRTH2 receptor [2].

For the molecule `CN(c1nc2ccc(F)cc2s1)C1CCc2c(CC(=O)O)c3ccccc3n2C1` (stereo not shown) [Example 4, 2-(7-((6-fluorobenzo[d]thiazol-2-yl)(methyl)amino)-6,7,8,9-tetrahydropyrido[1,2-a]indol-10-yl)acetic acid], the results for the half-maximal inhibitory concentration (IC50) on hCRTH2 receptor [1] and on hCRTH2 receptor [2] were 43 nM and 9 nM, respectively.

As to `CN(c1nc2cc(F)ccc2o1)C1CCc2c(CC(=O)O)c3ccccc3n2C1` (stereo not shown) [Example 5, 2-(7-((5-fluorobenzo[d]oxazol-2-yl)(methyl)amino)-6,7,8,9-tetrahydropyrido[1,2-a]indol-10-yl)acetic acid], the results for the IC50 at hCRTH2 receptor [1] and on hCRTH2 receptor [2] were 24 nM and 16 nM, respectively.

For `CN(c1nc2cc(F)ccc2s1)C1CCc2c(CC(=O)O)c3ccccc3n2C1` (stereo not shown) [Example 6, 2-(7-((5-fluorobenzo[d]thiazol-2-yl)(methyl)amino)-6,7,8,9-tetrahydropyrido[1,2-a]indol-10-yl)acetic acid], the IC50 on hCRTH2 receptor [1] was 59 nM; at hCRTH2 receptor [2] it was 92 nM.

For the molecule `CN(c1ncc(F)cn1)C1CCc2c(CC(=O)O)c3cc(F)ccc3n2C1` (stereo not shown) [Example 7, 2-(2-fluoro-7-((5-fluoropyrimidin-2-yl)(methyl)amino)-6,7,8,9-tetrahydropyrido[1,2-a]indol-10-yl)acetic acid], the IC50 at hCRTH2 receptor [1] is 119 nM; on hCRTH2 receptor [2], 17 nM.

As to `CN(c1nc2cc(F)ccc2o1)C1CCc2c(CC(=O)O)c3cc(F)ccc3n2C1` (stereo not shown) [Example 8, 2-(2-fluoro-7-((5-fluorobenzo[d]oxazol-2-yl)(methyl)amino)-6,7,8,9-tetrahydropyrido[1,2-a]indol-10-yl)acetic acid], the concentration for half-maximal inhibition (IC50) at hCRTH2 receptor [1] worked out at 123 nM; on hCRTH2 receptor [2], 12 nM.

Turning to `CN(c1ncc(F)cn1)C1CCc2c(CC(=O)O)c3ccc(F)cc3n2C1` (stereo not shown) [Example 9, 2-(3-fluoro-7-((5-fluoropyrimidin-2-yl)(methyl)amino)-6,7,8,9-tetrahydropyrido[1,2-a]indol-10-yl)acetic acid], the IC50 came to 10 nM on hCRTH2 receptor [1] and 1 nM on hCRTH2 receptor [2].

Regarding `CN(c1nc2cc(F)ccc2o1)C1CCc2c(CC(=O)O)c3ccc(F)cc3n2C1` (stereo not shown) [Example 10, 2-(3-fluoro-7-((5-fluorobenzo[d]oxazol-2-yl)(methyl)amino)-6,7,8,9-tetrahydropyrido[1,2-a]indol-10-yl)acetic acid], the IC50 on hCRTH2 receptor [1] came out at 7 nM; at hCRTH2 receptor [2], 0.7 nM.

On to `COc1ccc2c(c1)c(CC(=O)O)c1n2CC(N(C)c2ncc(F)cn2)CC1` (stereo not shown) [Example 11, 2-(7-((5-fluoropyrimidin-2-yl)(methyl)amino)-2-methoxy-6,7,8,9-tetrahydropyrido[1,2-a]indol-10-yl)acetic acid], for which the IC50 at hCRTH2 receptor [2] amounted to 420 nM.

`COc1ccc2c(c1)c(CC(=O)O)c1n2CC(N(C)c2nc3cc(F)ccc3o2)CC1` (stereo not shown) [Example 12, 2-(7-((5-fluorobenzo[d]oxazol-2-yl)(methyl)amino)-2-methoxy-6,7,8,9-tetrahydropyrido[1,2-a]indol-10-yl)acetic acid] showed an IC50 on hCRTH2 receptor [2] of 231 nM.

In the case of `Cc1ccc2c(c1)c(CC(=O)O)c1n2CC(N(C)c2ncc(F)cn2)CC1` (stereo not shown) [Example 13, 2-(7-((5-fluoropyrimidin-2-yl)(methyl)amino)-2-methyl-6,7,8,9-tetrahydropyrido[1,2-a]indol-10-yl)acetic acid], on hCRTH2 receptor [2], the IC50 is 417 nM.

As to `Cc1ccc2c(c1)c(CC(=O)O)c1n2CC(N(C)c2nc3cc(F)ccc3o2)CC1` (stereo not shown) [Example 14, 2-(7-((5-fluorobenzo[d]oxazol-2-yl)(methyl)amino)-2-methyl-6,7,8,9-tetrahydropyrido[1,2-a]indol-10-yl)acetic acid], the results for the IC50 at hCRTH2 receptor [1] and on hCRTH2 receptor [2] were over 1000 nM and 42 nM, respectively.

On to `CN(c1ncc(F)cn1)C1CCc2c(CC(=O)O)c3cc(Cl)ccc3n2C1` (stereo not shown) [Example 15, 2-(2-chloro-7-((5-fluoropyrimidin-2-yl)(methyl)amino)-6,7,8,9-tetrahydropyrido[1,2-a]indol-10-yl)acetic acid], for which the IC50 at hCRTH2 receptor [2] turned out to be 136 nM.

Turning to `CN(c1nc2cc(F)ccc2o1)C1CCc2c(CC(=O)O)c3cc(Cl)ccc3n2C1` (stereo not shown) [Example 16, 2-(2-chloro-7-((5-fluorobenzo[d]oxazol-2-yl)(methyl)amino)-6,7,8,9-tetrahydropyrido[1,2-a]indol-10-yl)acetic acid], the results for the IC50 on hCRTH2 receptor [1] and on hCRTH2 receptor [2] were over 1000 nM and 21 nM, respectively.

As for `CN(c1ncc(Cl)cn1)C1CCc2c(CC(=O)O)c3ccc(F)cc3n2C1` (stereo not shown) [Example 17, 2-(7-((5-chloropyrimidin-2-yl)(methyl)amino)-3-fluoro-6,7,8,9-tetrahydropyrido[1,2-a]indol-10-yl)acetic acid], the IC50 on hCRTH2 receptor [1] came out at 46 nM; on hCRTH2 receptor [2], 4 nM.

Turning to `CN(c1ncc(C(F)(F)F)cn1)C1CCc2c(CC(=O)O)c3ccc(F)cc3n2C1` (stereo not shown) [Example 18, 2-(3-fluoro-7-(methyl(5-(trifluoromethyl)pyrimidin-2-yl)amino)-6,7,8,9-tetrahydropyrido[1,2-a]indol-10-yl)acetic acid], the IC50 turned out to be 71 nM on hCRTH2 receptor [1] and 6 nM on hCRTH2 receptor [2].

Molecule `CN(c1nc2cc(F)ccc2s1)C1CCc2c(CC(=O)O)c3ccc(F)cc3n2C1` (stereo not shown) [Example 19, 2-(3-fluoro-7-((5-fluorobenzo[d]thiazol-2-yl)(methyl)amino)-6,7,8,9-tetrahydropyrido[1,2-a]indol-10-yl)acetic acid] displayed an IC50 at hCRTH2 receptor [2] of 51 nM.

For the molecule `CN(c1nc2ccc(F)cc2o1)C1CCc2c(CC(=O)O)c3ccc(F)cc3n2C1` (stereo not shown) [Example 20, 2-(3-fluoro-7-((6-fluorobenzo[d]oxazol-2-yl)(methyl)amino)-6,7,8,9-tetrahydropyrido[1,2-a]indol-10-yl)acetic acid], the IC50 came to 20 nM at hCRTH2 receptor [1] and 1 nM at hCRTH2 receptor [2].

In turn, `CN(c1ncc(Cl)cn1)C1CCc2c(CC(=O)O)c3cc(OC(F)(F)F)ccc3n2C1` (stereo not shown) [Example 23, 2-(7-((5-chloropyrimidin-2-yl)(methyl)amino)-2-(trifluoromethoxy)-6,7,8,9-tetrahydropyrido[1,2-a]indol-10-yl)acetic acid] displayed an IC50 at hCRTH2 receptor [2] of 354 nM.

Turning to `CN(c1ncc(F)cn1)C1CCc2c(CC(=O)O)c3cc(OC(F)(F)F)ccc3n2C1` (stereo not shown) [Example 25, 2-(7-((5-fluoropyrimidin-2-yl)(methyl)amino)-2-(trifluoromethoxy)-6,7,8,9-tetrahydropyrido[1,2-a]indol-10-yl)acetic acid], the IC50 at hCRTH2 receptor [2] turned out to be 141 nM.

Molecule `CN(c1nc2ccc(F)cc2s1)C1CCc2c(CC(=O)O)c3cc(OC(F)(F)F)ccc3n2C1` (stereo not shown) [Example 27, 2-(7-((6-fluorobenzo[d]thiazol-2-yl)(methyl)amino)-2-(trifluoromethoxy)-6,7,8,9-tetrahydropyrido[1,2-a]indol-10-yl)acetic acid] yielded an IC50 at hCRTH2 receptor [2] of 812 nM.

Take `CN(c1nc2cc(F)ccc2o1)C1CCc2c(CC(=O)O)c3cc(OC(F)(F)F)ccc3n2C1` (stereo not shown) [Example 29, 2-(7-((5-fluorobenzo[d]oxazol-2-yl)(methyl)amino)-2-(trifluoromethoxy)-6,7,8,9-tetrahydropyrido[1,2-a]indol-10-yl)acetic acid]: at hCRTH2 receptor [2], the IC50 worked out at 964 nM.

On hCRTH2 receptor [2], `Cc1nc(N(C)C2CCc3c(CC(=O)O)c4ccc(Cl)cc4n3C2)c2ccccc2n1` (stereo not shown) [Example 42, 2-(3-chloro-7-(methyl(2-methylquinazolin-4-yl)amino)-6,7,8,9-tetrahydropyrido[1,2-a]indol-10-yl)acetic acid] returned a half-inhibitory concentration (IC50) of 71 nM.
